Legend:
[1] = 298.15 K, Drop volume
[2] = xn = mol fraction of the nth substance listed; conditions: 298.15 K, Drop volume

Cc1ccc(C)cc1 [1,4-dimethylbenzene]
Conditions | surface tension liquid-gas [mN/m]
[1] | 27.7

CCCOC(=O)CC [propyl propanoate]
Conditions | surface tension liquid-gas [mN/m]
[1] | 24.1

Cc1cccc(C)c1 [1,3-dimethylbenzene]
Conditions | surface tension liquid-gas [mN/m]
[1] | 28.03

CCCOC(=O)CC [propyl propanoate] + Cc1ccc(C)cc1
[2]
Conditions | surface tension liquid-gas [mN/m]
x1 = 0.061 | 27.46
x1 = 0.0898 | 27.35
x1 = 0.1545 | 27.09
x1 = 0.2219 | 26.82
x1 = 0.2558 | 26.69
x1 = 0.3257 | 26.42
x1 = 0.388 | 26.18
x1 = 0.4204 | 26.07
x1 = 0.4851 | 25.83
x1 = 0.5211 | 25.71
x1 = 0.5809 | 25.5
x1 = 0.6209 | 25.38
x1 = 0.6846 | 25.17
x1 = 0.7187 | 25.07
x1 = 0.7976 | 24.82
x1 = 0.8562 | 24.62
x1 = 0.8779 | 24.56
x1 = 0.9544 | 24.28

Cc1ccccc1C [1,2-dimethylbenzene]
Conditions | surface tension liquid-gas [mN/m]
[1] | 29.27

CCCOC(=O)CC [propyl propanoate] + Cc1ccccc1C
[2]
Conditions | surface tension liquid-gas [mN/m]
x1 = 0.0587 | 28.88
x1 = 0.0915 | 28.66
x1 = 0.1548 | 28.27
x1 = 0.2236 | 27.85
x1 = 0.2531 | 27.68
x1 = 0.3216 | 27.3
x1 = 0.3862 | 26.95
x1 = 0.4212 | 26.77
x1 = 0.4836 | 26.45
x1 = 0.517 | 26.29
x1 = 0.5814 | 25.98
x1 = 0.6503 | 25.64
x1 = 0.6829 | 25.49
x1 = 0.7507 | 25.17
x1 = 0.7823 | 25.03
x1 = 0.8909 | 24.54
x1 = 0.9636 | 24.23

CCCOC(=O)CC [propyl propanoate] + Cc1cccc(C)c1
[2]
Conditions | surface tension liquid-gas [mN/m]
x1 = 0.0621 | 27.69
x1 = 0.0989 | 27.5
x1 = 0.1636 | 27.19
x1 = 0.2293 | 26.88
x1 = 0.2608 | 26.74
x1 = 0.3264 | 26.45
x1 = 0.4215 | 26.07
x1 = 0.6132 | 25.34
x1 = 0.7485 | 24.86
x1 = 0.7827 | 24.74
x1 = 0.8542 | 24.52
x1 = 0.8896 | 24.41
